Experiments:
Assay type in all cases: in vivo
Veronica persica = test: Herbicidal action post-emergence (greenhouse pot trial); conditions: application rate 20 g/ha
Procedure: (§1) Seeds of mono- and dicotyledonous weed plants and crop plants are laid out in sandy loam soil in plastic or wood-fiber pots, covered with earth and grown under controlled growth conditions in a greenhouse. 2 to 3 weeks after sowing, the trial plants are treated at the one-leaf stage. The compounds of the invention formulated in the form of wettable powders (WP) or emulsion concentrates (EC) were then sprayed onto the green parts of the plant as an aqueous suspension or emulsion with addition of 0.5% additive at a water application rate equivalent to 600 L/ha. After the trial plants had stood for about 3 weeks in the greenhouse, under optimal growth conditions, the effect of the preparations was scored visually by comparison with untreated controls. For example, 100% efficacy=plants have died, 0% efficacy=like control plants. Tables A1 to A15 below show the efficacies of selected compounds of the general formula (I) according to tables I.1 to I.60 on various harmful plants and an application rate corresponding to 80 g/ha or lower that were obtained by the aforementioned trial method.

Abutilon theophrasti = test: as above; conditions: application rate 20 g/ha, scored visually after about 3 weeks vs untreated controls
Procedure: as §1

Amaranthus retroflexus = test: as above; conditions: application rate 20 g/ha, scored visually after about 3 weeks vs untreated controls
Procedure: as §1

Viola tricolor = test: as above; conditions: application rate 20 g/ha
Procedure: as §1

Stellaria media = test: as above; conditions: application rate 20 g/ha, scored visually after about 3 weeks vs untreated controls
Procedure: as §1

Matricaria inodora = test: as above; conditions: application rate 20 g/ha, scored visually after about 3 weeks vs untreated controls
Procedure: as §1

Oryza sativa = test: Crop compatibility post-emergence (greenhouse pot trial)
Procedure: as §1, with “plants.” for “plants. Tables A1 to A15 below show the efficacies of selected compounds of the general formula (I) according to tables I.1 to I.60 on various harmful plants and an application rate corresponding to 80 g/ha or lower that were obtained by the aforementioned trial method.”
(§2) Crop plant compatibilities were also scored correspondingly.
(§3) The effects observed are reported here on selected crop plants by comparison with the untreated controls (values in %).

Echinochloa crus-galli = test: Herbicidal action post-emergence (greenhouse pot trial); conditions: application rate 20 g/ha, scored visually after about 3 weeks vs untreated controls
Procedure: as §1

Digitaria sanguinalis = test: as above; conditions: application rate 20 g/ha
Procedure: as §1

Pharbitis purpurea = test: as above; conditions: application rate 20 g/ha
Procedure: as §1

Polygonum convolvulus = test: as above; conditions: application rate 20 g/ha, scored visually after about 3 weeks vs untreated controls
Procedure: as §1

Triticum aestivum = test: Crop compatibility post-emergence (greenhouse pot trial)
Procedure: as §1, with “plants.” for “plants. Tables A1 to A15 below show the efficacies of selected compounds of the general formula (I) according to tables I.1 to I.60 on various harmful plants and an application rate corresponding to 80 g/ha or lower that were obtained by the aforementioned trial method.”
as §2, §3

Setaria viridis = test: Herbicidal action post-emergence (greenhouse pot trial); conditions: application rate 20 g/ha, scored visually after about 3 weeks vs untreated controls
Procedure: as §1

SMILES | Veronica persica (Efficacy in %) (Veronica persica) | Abutilon theophrasti (Efficacy in %) (Abutilon theophrasti) | Amaranthus retroflexus (Efficacy in %) (Amaranthus retroflexus) | Viola tricolor (Efficacy in %) (Viola tricolor) | Stellaria media (Efficacy in %) (Stellaria media) | Matricaria inodora (Efficacy in %) (Matricaria inodora) | Oryza sativa (Efficacy in %) (Oryza sativa; application rate 20 g/ha) | Echinochloa crus-galli (Efficacy in %) (Echinochloa crus-galli) | Digitaria sanguinalis (Efficacy in %) (Digitaria sanguinalis) | Pharbitis purpurea (Efficacy in %) (Pharbitis purpurea) | Polygonum convolvulus (Efficacy in %) (Polygonum convolvulus) | Triticum aestivum (Efficacy in %) (Triticum aestivum; application rate 20 g/ha) | Setaria viridis (Efficacy in %) (Setaria viridis) | Triticum aestivum (Efficacy in %) (Triticum aestivum; application rate 5 g/ha) | Oryza sativa (Efficacy in %) (Oryza sativa; application rate 5 g/ha)
CC(Sc1cc(-n2c(=O)cc(C(F)(F)F)n(C)c2=O)c(F)cc1Cl)C(=O)NCC1COCCO1 (centres unmarked) [I.1-331] | 100% | 100% | 100% | 100% | 80% | 90% | 10% |  |  |  |  |  |  |  | 
Cn1c(C(F)(F)F)cc(=O)n(-c2cc(SCC(C)(C)C(=O)OCC3CCCS3)c(Cl)cc2F)c1=O (centres unmarked) [I.48-81] | 100% | 100% | 100% | 100% | 100% | 100% |  | 90% | 100% | 100% | 100% | 20% |  |  | 
CC(CC(=O)OCC1CCCO1)Sc1cc(-n2c(=O)cc(C(F)(F)F)n(C)c2=O)c(F)cc1Cl (centres unmarked) [I.49-71] | 100% | 100% | 100% | 100% | 100% | 100% | 10% |  |  | 100% | 100% | 20% |  |  | 
CC1CC(COC(=O)C(C)(C)CSc2cc(-n3c(=O)cc(C(F)(F)F)n(C)c3=O)c(F)cc2Cl)CO1 (centres unmarked) [I.48-73] | 100% | 100% | 100% | 100% | 100% | 80% | 0% |  |  | 100% | 80% | 0% |  |  | 
Cc1c(C(F)(F)F)n(C)c(=O)n(-c2cc(SCC(C)(C)C(=O)NCC3CCCCO3)c(Cl)cc2F)c1=O (centres unmarked) [I.54-241] | 100% | 100% | 100% |  | 80% |  | 0% |  | 80% |  | 100% | 0% | 100% |  | 
CC(Sc1cc(-n2c(=O)cc(C(F)(F)F)n(C)c2=O)c(F)cc1Cl)C(=O)NCC1CCCCO1 (centres unmarked) [I.1-241] | 100% | 100% | 100% | 100% | 100% | 100% | 10% |  | 100% |  | 100% |  | 100% | 20% | 
CC(CC(=O)OCC1CCOC1)Sc1cc(-n2c(=O)cc(C(F)(F)F)n(C)c2=O)c(F)cc1Cl (centres unmarked) [I.49-72] | 100% | 100% | 100% | 100% |  | 90% | 10% |  |  |  |  |  |  |  | 
CC(Sc1cc(-n2c(=O)cc(C(F)(F)F)n(C)c2=O)c(F)cc1Cl)C(=O)NC1CCCOC1 (centres unmarked) [I.1-276] | 100% | 100% | 100% | 100% | 100% | 100% |  |  |  |  | 100% |  | 100% |  | 10%
CCC(C)C(Sc1cc(-n2c(=O)cc(C(F)(F)F)n(C)c2=O)c(F)cc1Cl)C(=O)OCC1CCCCO1 (centres unmarked) [I.5-91] | 100% | 100% | 100% | 100% |  | 90% |  | 80% |  | 100% | 90% | 10% | 90% |  | 
CC(CC(=O)NCC1CCCO1)Sc1cc(-n2c(=O)cc(C(F)(F)F)n(C)c2=O)c(F)cc1Cl (centres unmarked) [I.49-221] | 100% | 100% | 100% |  | 90% | 90% | 10% |  |  | 100% | 100% |  |  |  | 
CCC(Sc1cc(-n2c(=O)cc(C(F)(F)F)n(C)c2=O)c(F)cc1Cl)C(=O)OCC1COC(C)C1 (centres unmarked) [I.2-73] | 100% | 100% | 100% | 100% | 100% | 100% | 10% |  |  |  | 100% |  | 90% |  | 
Cn1c(C(F)(F)F)cc(=O)n(-c2cc(SCC(C)(C)C(=O)OCC3CCSC3)c(Cl)cc2F)c1=O (centres unmarked) [I.48-82, Tetrahydrothiophen-3-ylmethyl 3-({2-chloro-4-fluoro-5-[3-methyl-2,6-dioxo-4-(trifluoromethyl)-3,6-dihydropyrimidin-1(2H)-yl]phenyl}sulfanyl)-2,2-dimethylpropanoate] |  | 100% | 100% |  |  |  |  |  |  |  | 100% |  |  | 0% | 
CC(Sc1cc(-n2c(=O)cc(C(F)(F)F)n(C)c2=O)c(F)cc1Cl)C(=O)NCCCOCc1ccccc1 (centres unmarked) [I.1-180] | 100% | 100% | 100% | 100% | 90% | 100% | 0% |  |  | 100% | 100% | 20% |  |  | 
Cn1c(C(F)(F)F)cc(=O)n(-c2cc(SCC(C)(C)C(=O)OCC3CCCCO3)c(Cl)cc2F)c1=O (centres unmarked) [I.48-91] | 100% | 100% | 100% | 100% | 100% | 100% |  | 100% | 100% | 100% | 100% |  |  | 20% | 
Cc1c(C(F)(F)F)n(C)c(=O)n(-c2cc(SC(CC(C)C)C(=O)NCC3CCCO3)c(Cl)cc2F)c1=O (centres unmarked) [I.14-221] | 100% | 90% | 100% | 100% |  | 80% | 10% |  |  | 100% | 80% | 20% |  |  | 

— patent publication US11497212B2, “Substituted thiophenyl uracils, salts thereof and the use thereof as herbicidal agents” (Syngenta Crop Protection AG, priority 2017, dated 2022)
